From patent US5985824A, “Methods and compositions for treating cystic fibrosis” (priority 1997, dated 1999)
“Also recorded” adds a separate entry of the source.

Experiments:
[1] = system: ΔF508-CFTR (IBE-1 cells); test: whole cell patch-clamp analysis of IBE-1 cells; assay type: cell-based, human; conditions: 200 μM extracellular DPC, n=4, DSG-treated IBE-1 cells
Protocol: The bath (extracellular) solution contained: 140 mM N-methyl-Dglucamine (NMDG), 2 mM CaCl2, 1 mM MgCl2, 0.1 mM CdCl2, 10 mM HEPES, 4 mM CsCl, and 10 mM glucose, pH 7.4. These solutions were designed so as to study only currents flowing through Cl^- channels, since Cl^- was the only significant permeant ion in the solutions. Furthermore, Ca^2+ -activated Cl^- currents were minimized by inclusion of 10 mM EGTA in the intracellular solution and 100 μM of Cd^2+ in the extracellular bath. K^+ currents were minimized by including 20 mM TEA in the intracellular solution. Aspartate was used as the replacement anion in experiments in which extracellular Cl^- concentration was changed. Forskolin (10 μM), IBMX (100 μM), 8-(4-chlorophenylthio)-cAMP (cpt-cAMP, 200 μM), diphenylamine carboxylic acid (DPC, 200 μM), UTP (100 μM), and ionomycin (1 μM) were added to the bath solutions as indicated. Current recordings were made from the same cells before, during, and after exposure to the solutions containing the different agonists or inhibitors. All experiments were performed at room temperature (22° C.). Currents were filtered at 2 kHz. Data acquisition and analysis were performed using the PCLAMP 5.5.1 software (Axon Instruments, Foster City, Calif.).
In all of the successfully patched CF IBE-1 cells from 6 separate coverslips no activation of whole cell currents in response to forskolin (10 μM) plus IBMX (100 μM) or cpt-cAMP (200 μM) was detected (FIG. 10A and 10B), indicating no endogenous CFTR channel activity in these cells. In contrast, in 7 out of 19 successful patched cells from 19 separate coverslips treated with DSG (10 μM) for 48 to 72 hrs. a significant activation of whole cell currents was observed. As all the other cells, the holding potential was 0 m, which inactivated the voltage-gated Na^+ and Ca^++ channels. After addition of 200 μM cpt-cAMP to the bath solution, voltage steps from the holding potential to between -100 mV and 80 mV in 20 mV increments activated whole cell currents. In these experiments, the intracellular and extracellular solutions were designed to study only current flowing through Cl^- channels, since Cl^- is the only significant permeant ion in solution. Ca^++ and K^+ currents were minimized by 100 μM of extracellular Cd^++ and 20 mM of intracellular TEA respectively. Furthermore, the currents were ascertained to be Cl^- currents from change in the reversal potential which was shifted from 1.1±1.5 to 47.3±6.1 mV by reducing extracellular Cl^- from 150 mM to 20 mM.
It is highly unlikely that Ca^++ -activated Cl^- was recorded in these experiments because of the presence of 10 mM intracellular EGTA and 100 µM extracellular Cd^++. […] Special attention was paid to detect possible contribution of the outwardly rectifying Cl^- channel (ORCC) to the whole cell currents. Because of a possible upregulatory role of CFTR, ORCC can be activated in normal but not in CF airway epithelial cells (Hwang et al. (1989), supra.; Li et al. (1988), Nature 331: 358-360; Morris and Frizzel (1993); Am. J. Physiol.; Schwiebert et al. (1994), Am. J. Physiol.).

[2] = system: ΔF508-CFTR (IBE-1 cells); conditions: CFTR vs ORCC; Cliff and Frizzel, Schwiebert et al.; cited from earlier work
[3] = system: CFTR; conditions: Yang et al. (1997); cited from earlier work
[4] = system: ΔF508-CFTR; conditions: recombinant cells; Cheng et al. (1995); cited from earlier work
[5] = system: ΔF508-CFTR (C127-ΔF508-low cells); test: SPQ halide efflux assay, cAMP-stimulated Cl- channel activity, C127-ΔF508-low cells; assay type: cell-based; conditions: C127-ΔF508-low cells; for cAMP-stimulated change in SPQ fluorescence / Cl- channel activity, in words: DSG 10-100 μg/ml, sodium butyrate 5 mM 24 h, spermidine 5 μg/ml 72 h
Protocol: (§1) The cAMP-dependent CFTR Cl^- channel activity was assessed using the halide-sensitive fluorophore 6-methoxy-N-(3-sulfopropyl)-quinolinium (SPQ) essentially as described previously (Cheng et al., (1995), supra.; Marshall et al., supra.). Briefly, the cells were treated with different amounts of DSG for the times specified. At the end of the treatment period, the cells were loaded with SPQ by hypotonic shock for 4 min at room temperature. SPQ fluorescence initially was quenched by incubating the cells for up to 30 min in a NaI buffer (135 mM NaI, 2.4 mM K2 HPO4, 0.6 mM KH2 PO4, 1 mM MgSO4, 1 mM CaSO4, 10 mM dextrose, and 10 mM N-2 hydroxyethylpiperazine-N'2-ethanesulfonic acid, pH 7.4). After measuring the baseline fluorescence (Fo) for 2 min., the NaI solution was replaced with one containing 135 mM NaNO3, and fluorescence was measured for another 16 min. Forskolin (20 μM) and 3-isobutyl-1-methyl-xanthine (IBMX) (100 μM) were added 5 min after the anion substitution to increase intracellular levels of cAMP.
(§2) An increase in halide permeability is reflected by a more rapid increase in SPQ fluorescence. It is the rate of change rather than the absolute change in signal that is the important variable in evaluating anion permeability. Differences in absolute levels reflect quantitative differences between groups in SPQ loading, size of cells, or number of cells studied. The data are presented as means± SE of fluorescence at time t (Ft) minus the baseline fluorescence (Fo, the average fluorescence measured in the presence of I^- for 2 min. before ion substitution) and are representative of results obtained under each condition.
For each experiment, between 50 to 100 cells were examined on a given day and studies under each condition were repeated on at least two days. For each experiment, the responses were compared with those obtained with control or untreated cells. […] Under the conditions specified above, control cells were unresponsive to added cAMP agonists. There was a broad spectrum in the rate of change in SPQ fluorescence observed with responsive cells. Normally, cells were scored as responsive if they generated a minimum of a […] change in the rate of increase in SPQ fluorescence following stimulation with cAMP agonists. Because the response was heterogenous, the data shown are for the 10% of cells in each experiment showing the greatest response.
A bovine-papilloma virus based eukaryotic expression vector (pBPV-CFTR-ΔF508) containing the gene for ΔF508 CFTR and neomycin resistance were transfected into C127 cells. The C127 cells are murine mammary cells which were obtained from ATCC (#CRL 1616). The expression of the mutant ΔF508 protein and neomycin was driven using a metallothionein promoter. Following transfection, clonal cells resistant to G418 were isolated and cells expressing the mutant ΔF508 protein were subsequently identified using antibodies specific for CFTR (mAb-13-1). The cells expressing the mutant ΔF508 CFTR protein were maintained in Dulbecco's modified eagle media (DMEM) supplemented with glutamine and fetal calf serum.
C127-ΔF508-low (mouse mammary tumor) is a recombinant cell line stably transfected with the cDNA encoding the mutant ΔF508-CFTR (Cheng et al. (1995), supra.; Marshall et al. (1994), J. Biol. Chem. 269: 2987-2995). […] C127-mock is a cell line that has been stably transfected with the backbone of the expression vector used to generate C127-ΔF508-low (Cheng et al. (1995), supra.). LLCPK1 -ΔF508 (pig kidney epithelial) is a recombinant cell line stably expressing low levels of the mutant ΔF508-CFTR protein (Marshall et al., supra.). The details of the generation, characterization and routine propagation of these cell lines has been described (Cheng et al. (1995), supra.; Marshall et al., supra.).
Cells were treated with up to 100 μg/ml of DSG for up to 72 h. Concentrations of DSG >50 μg/ml were toxic to most of the cell types tested. […]

[6] = system: ΔF508-CFTR (JME/CF15 cells); test: SPQ assay, cAMP-stimulated Cl- channel activity, JME/CF15 cells; assay type: cell-based, human; conditions: 72 h
Protocol: as §1, §2
For each experiment, between 50 to 100 cells were examined on a given day and studies under each condition were repeated on at least two days. […] There was a broad spectrum in the rate of change in SPQ fluorescence observed with responsive cells. Normally, cells were scored as responsive if they generated a minimum of a […] change in the rate of increase in SPQ fluorescence following stimulation with cAMP agonists. […]

In the case of `O=C(O)c1ccccc1Nc1ccccc1` [DPC, diphenylamine carboxylic acid], the “reduction of whole cell currents” value [1] is given as 92±4% and the selectivity of inhibition [2] is given as “specifically inhibit CFTR but not ORCC”.

For `O=c1c(-c2ccc(O)cc2)coc2cc(O)cc(O)c12` [genistein], the “activity of CFTR Cl channels at the cell surface” value [3] is listed as “enhance the activity of CFTR”.

In the case of `CCCC(=O)[O-].[Na+]` [sodium butyrate], the “effect on ΔF508-CFTR expression / location, in words” value [4] is given as “overexpression of ΔF508 in recombinant cells; also recorded: results in synthesis of detectable amounts of band C-CFTR; also recorded: capable of effecting the presence of ΔF508-CFTR at the plasma membrane”, the “cells generating a measurable response” value ([5]; SPQ, average of 5 experiments) is given as 90% and the “cAMP-stimulated change in SPQ fluorescence / Cl- channel activity, in words” value [5] is given as “generated cAMP-stimulated halide efflux”.

In the case of `NCCCCNCCCN` [spermidine], the “cAMP-stimulated change in SPQ fluorescence / Cl- channel activity, in words” value [5] is reported as “No measurable cAMP-stimulated Cl^- channel activity was detected” and the “cAMP-stimulated Cl- channel activity, in words” value [6] is reported as “not replicated”.

In the case of calyculin, the “activity of CFTR Cl channels at the cell surface” value [3] is listed as “enhance the activity of CFTR”.
